The source of these data is patent US7531539B2, “Pyrrolotriazine kinase inhibitors” (Bristol-Myers Squibb Company, priority 2006, dated 2009).

Type in all cases: biochemical
In test [1] the target is Casein Kinase 2 A1 kinase (Homo sapiens, UniProt P68400). The experiment in a line: CK2A1 kinase assay (33P, TCA precipitation). The procedure:
(§1) Incubation mixtures employed for the Casein Kinase 2 A1 kinase assay contain Casecin Kinase 2 A1 kinase, a synthetic peptide substrate, ATP, ATP-γ-^33 P and a Hepes buffer containing Mg^2+, NaCl, DTT, and Brij-35. Reactions were incubated for 60 minutes at 30° C. and stopped by the addition of trichloroacetic acid (TCA) to a final concentration 8%. TCA precipitates were collected onto GF/C unifilter plates using a Filtermate universal harvester and the filters are quantitated using a TopCount 96/384-well liquid scintillation counter. Dose response curves were generated to determine the concentration required to inhibit 50% of kinase activity (IC50). Compounds were dissolved at 10 mM in dimethyl sulfoxide (DMSO) and evaluated at ten concentrations, each in duplicate. The final concentration of DMSO in the assay is 1.7%. IC50 values were derived by non-linear regression.

The target in test [2] is Casein Kinase 2 A2 kinase (Homo sapiens, UniProt P19784). The experiment in a line: CK2A2 kinase assay (33P, TCA precipitation). As to the method: as §1, with “A2” for “A1”, “Casein” for “Casecin”, “ATP-γ^33P” for “ATP-γ-^33 P”, “Mg^++,” for “Mg^2+,”, “(IC^50).” for “(IC50).”
Sequence of Casein Kinase 2 A2 kinase (P19784 whole entry, the tested form may be a part): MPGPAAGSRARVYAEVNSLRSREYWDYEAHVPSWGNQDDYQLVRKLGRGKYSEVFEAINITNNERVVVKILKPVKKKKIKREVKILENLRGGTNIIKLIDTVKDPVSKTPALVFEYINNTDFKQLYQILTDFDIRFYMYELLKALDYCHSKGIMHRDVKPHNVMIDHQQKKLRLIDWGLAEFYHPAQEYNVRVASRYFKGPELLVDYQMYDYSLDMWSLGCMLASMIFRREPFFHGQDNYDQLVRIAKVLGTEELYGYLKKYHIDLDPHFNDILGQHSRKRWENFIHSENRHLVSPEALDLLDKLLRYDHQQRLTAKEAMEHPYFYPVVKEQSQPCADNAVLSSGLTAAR
The target in test [3] is T1, kinase domain of the human TrkA receptor (Homo sapiens, UniProt P04629).
T1 construct: The kinase domain of the human TrkA receptor is expressed in Sf9 insect cells as a histidine (His)-fusion protein; His; made in house; host or cells: Sf9 insect cells (baculovirus)
T1 sequence (P04629 510-781 limits assumed): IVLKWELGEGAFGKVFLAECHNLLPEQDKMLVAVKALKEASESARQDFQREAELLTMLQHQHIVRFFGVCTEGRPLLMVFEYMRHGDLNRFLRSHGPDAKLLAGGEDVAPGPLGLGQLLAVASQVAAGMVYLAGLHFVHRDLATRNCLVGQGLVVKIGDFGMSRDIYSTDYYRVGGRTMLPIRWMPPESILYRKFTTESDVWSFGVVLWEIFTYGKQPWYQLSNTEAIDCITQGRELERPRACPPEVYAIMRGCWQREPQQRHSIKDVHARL
The experiment in a line: TrkA tyrosine kinase assay (33P, polyGluTyr substrate). As to conditions: 30 uM ATP, 0.1 mg/ml PGT. From the text: The ability of compounds of the present invention to inhibit tyrosine kinase activity of TrkA may be measured using a recombinant enzyme in an assay that measures the ability of compounds to inhibit the phosphorylation of the exogenous substrate, polyGluTyr (PGT, 4:1). The kinase domain of the human TrkA receptor is expressed in Sf9 insect cells as a histidine (His)-fusion protein using a baculovirus expression system. The protein is purified from the lysates of these cells using an Ni—NTA affinity column. After the recombinant enzyme is purified, it is activated by incubation with cold ATP. The enzyme assay is performed in a 96-well plate. Test compounds are first dissolved in dimethylsulfoxide (DMSO) and then serially-diluted in a 96-well plate. The serially-diluted compounds are transferred to the 96-well assay plate so that the final concentration of DMSO in the enzyme assay is 1.64%. All assay components are diluted in phosphorylation buffer (20 mm MOPS, 10 mM MgCl2, 1 mM EDTA, 0.015% Brij-35, […], 0.0025% Beta-Mercaptoethanol). The recombinant enzyme is added to the assay plate containing test compound and the reaction is initiated with a substrate solution containing a final concentration of 0.1 mg/ml PGT, 30 uM ATP, and 0.008 mCi/ml ^33P-gammaATP (3000 Ci/mmol). After a 1 hour incubation at 30° C., the reaction is terminated with 10% TCA and incubated at 4° C. for 1 hour. The reaction is filtered onto a Unifilter® GF/C™ filter plate that has been presoaked with 0.1M NaPyrophosphate. Microscint-20 is then added to the dried filter plate and the captured ^33P-phosphorylated PGT is quantitated on a microscintillation plate counter (TopCount.NXT™). Inhibition of the kinase enzymatic activity by the test compound is detected by a reduction in scintillation, and the concentration of compound that is required to inhibit the signal by 50% is reported as the IC50 value for the test compound.
(§2) Compounds described herein were tested in the TrkA and TrkB assays described above.

Test [4] deals with T2, kinase domain of the human TrkB receptor (amino acids 526-838) (Homo sapiens, UniProt Q16620).
T2 construct: human TrkB receptor (amino acids 526-838); His; purchased Invitrogen; host or cells: insect cells
T2 sequence (Q16620 510-822): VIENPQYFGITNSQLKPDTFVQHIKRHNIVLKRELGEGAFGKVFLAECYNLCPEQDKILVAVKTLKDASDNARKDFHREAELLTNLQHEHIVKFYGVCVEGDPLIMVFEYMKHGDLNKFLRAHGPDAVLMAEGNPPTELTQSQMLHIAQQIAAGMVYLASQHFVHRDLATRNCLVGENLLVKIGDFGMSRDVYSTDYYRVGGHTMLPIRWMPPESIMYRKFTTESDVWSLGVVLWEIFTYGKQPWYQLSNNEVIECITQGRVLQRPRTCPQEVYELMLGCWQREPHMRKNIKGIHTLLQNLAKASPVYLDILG
Briefly: TrkB tyrosine kinase assay (33P, polyGluTyr substrate). As to conditions: 30 uM ATP, 0.1 mg/ml PGT. The procedure:
The ability of compounds of the present invention to inhibit tyrosine kinase activity of TrkB may be measured using a recombinant enzyme in an assay that measures the ability of compounds to inhibit the phosphorylation of the exogenous substrate, polyGluTyr (PGT, 4:1). The kinase domain of the human TrkB receptor (amino acids 526-838) is expressed in insect cells as a histidine (His)-fusion protein and is commercially available from Invitrogen™. The enzyme assay is performed in a 96-well plate. Test compounds are first dissolved in dimethylsulfoxide (DMSO) and then serially-diluted in a 96-well plate. The serially-diluted compounds are transferred to the 96-well assay plate so that the final concentration of DMSO in the enzyme assay is 1.64%. All assay components are diluted in phosphorylation buffer (20 mm MOPS, 10 mM MgCl2, 1 mM EDTA, 0.015% Brij-35, 0.1 mg/ml BSA, 0.0025% Beta-Mercaptoethanol). The recombinant enzyme is added to the assay plate containing test compound and the reaction is initiated with a substrate solution containing a final concentration of 0.1 mg/ml PGT, 30 uM ATP, and 0.008 mCi/ml ^33P-gammaATP (3000 Ci/mmol). After a 1 hour incubation at 30° C., the reaction is terminated with 10% TCA and incubated at 4° C. for 1 hour. The reaction is filtered onto a Unifilter® GF/C™ filter plate that has been pre-soaked with 0.1M NaPyrophosphate. Microscint-20 is then added to the dried filter plate and the captured ^33P-phosphorylated PGT is quantitated on a microscintillation plate counter (TopCount.NXT™). Inhibition of the kinase enzymatic activity by the test compound is detected by a reduction in scintillation, and the concentration of compound that is required to inhibit the signal by 50% is reported as the IC50 value for the test compound.
as §2

The term pIC50 denotes the IC50 on a negative log10 scale, so that one unit is a factor of ten.

pIC50: −log10 of the molar value.

Sequence of Casein Kinase 2 A1 kinase (P68400 whole entry): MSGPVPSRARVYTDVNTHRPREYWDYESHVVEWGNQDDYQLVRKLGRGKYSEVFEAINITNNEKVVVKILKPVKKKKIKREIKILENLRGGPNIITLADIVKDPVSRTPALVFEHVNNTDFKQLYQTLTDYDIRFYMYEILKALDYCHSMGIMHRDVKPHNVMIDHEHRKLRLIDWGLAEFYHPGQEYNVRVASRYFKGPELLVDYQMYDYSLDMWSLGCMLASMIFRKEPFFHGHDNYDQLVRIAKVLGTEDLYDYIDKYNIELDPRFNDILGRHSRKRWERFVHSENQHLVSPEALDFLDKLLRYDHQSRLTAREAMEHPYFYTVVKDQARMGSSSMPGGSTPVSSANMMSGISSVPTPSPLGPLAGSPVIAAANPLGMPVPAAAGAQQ

Take “2-(3-(2-methoxyphenyl)pyrrolidin-1-yl)-N-(3-methyl-1H-pyrazol-5-yl)pylTolo[1,2-f][1,2,4]triazin-4-amine [Example 176]”: the negative-log IC50 (pIC50) in test [1] is 6.06; in test [2] it was 7.05.
For the molecule `NC1CCN(c2nc(Nc3cc(C4CC4)n[nH]3)c3cccn3n2)CC1` [Example 3, 2-(4-amino-1-piperidinyl)-N-(3-cyclopropyl-1H-pyrazol-5-yl)pyrrolo[2,1-f][1,2,4]triazin-4-amine], the values for the pIC50 in test [3] and in test [4] were 9.22 and 8.70, respectively.
Turning to `NC1CCN(c2nc(Nc3ccn[nH]3)c3cccn3n2)CC1` [Example 4, 2-(4-amino-1-piperidinyl)-N-1H-pyrazol-5-ylpyrrolo[2,1-f][1,2,4]triazin-4-amine], the pIC50 in test [3] is 6.91; in test [4] it was 6.51.
For the molecule `c1ccc(CNC2CCN(c3nc(Nc4cc(C5CC5)n[nH]4)c4cccn4n3)CC2)cc1` [Example 8, 2-(4-(benzylamino)-1-piperidinyl)-N-(3-cyclopropyl-1H-pyrazol-5-yl)pyrrolo[2,1-f][1,2,4]triazin-4-amine], the pIC50 in test [3] and in test [4] was 9.52 throughout.
`NC1CCN(c2nc(Nc3cc(OCC4CC4)n[nH]3)c3cccn3n2)CC1` [Example 14, 2-(4-amino-1-piperidinyl)-N-(3-(cyclopropylmethoxy)-1H-pyrazol-5-yl)pyrrolo[2,1-f][1,2,4]triazin-4-amine]: the values for the negative logarithm of the IC50 (pIC50) in test [3] and in test [4] were 9.00 and 8.52, respectively.
On to `C[C@H]1C[C@@H]1c1cc(Nc2nc(N3CCC(N)CC3)nn3cccc23)[nH]n1` [Example 18, 2-(4-amino-1-piperidinyl)-N-(3-((1S,2S)-2-methylcyclopropyl)-1H-pyrazol-5-yl)pyrrolo[2,1-f][1,2,4]triazin-4-amine], for which the pIC50 in test [3] was 9.10; in test [4] it was 9.00.
Regarding `CCC(C)c1cc(Nc2nc(N3CCC(N)CC3)nn3cccc23)[nH]n1` (centres unmarked) [Example 19, 2-(4-amino-1-piperidinyl)-N-(3-sec-butyl-1H-pyrazol-5-yl)pyrrolo[2,1-f][1,2,4]triazin-4-amine], the negative logarithm of the IC50 (pIC50) in test [3] is 8.05; in test [4] it was 7.70.
On to `CC(C)(C)c1cc(Nc2nc(N3CCC(N)CC3)nn3cccc23)[nH]n1` [Example 21, 2-(4-amino-1-piperidinyl)-N-(3-tert-butyl-1H-pyrazol-5-yl)pyrrolo[2,1-f][1,2,4]triazin-4-amine], for which the pIC50 in test [3] is 7.25; in test [4], 7.07.
Taken in the same sequence, the figures for `N#CCC(=O)NC1CCN(c2nc(Nc3cc(C4CC4)n[nH]3)c3cccn3n2)CC1` [Example 39, 2-cyano-N-(1-(4-((3-cyclopropyl-1H-pyrazol-5-yl)amino)pyrrolo[2,1-f][1,2,4]triazin-2-yl)-4-piperidinyl)acetamide] were 9.00 and 9.15.
Taken in the same sequence, the figures for `O=C(CCc1ccccc1)NC1CCN(c2nc(Nc3cc(C4CC4)n[nH]3)c3cccn3n2)CC1` [Example 43, N-(1-(4-((3-cyclopropyl-1H-pyrazol-5-yl)amino)pyrrolo[2,1-f][1,2,4]triazin-2-yl)-4-piperidinyl)-3-phenylpropanamide] were 9.40 and 9.30.
As for `O=C(Cc1cccs1)NC1CCN(c2nc(Nc3cc(C4CC4)n[nH]3)c3cccn3n2)CC1` [Example 49, N-(1-(4-((3-cyclopropyl-1H-pyrazol-5-yl)amino)pyrrolo[2,1-f][1,2,4]triazin-2-yl)-4-piperidinyl)-2-(2-thienyl)acetamide], the pIC50 in test [3] was 9.05; in test [4] it was 9.22.
Taken in the same sequence, the figures for `Cc1cc(Nc2nc(N3CC[C@@H](O)C3)nn3cccc23)n[nH]1` [Example 70, (3R)-1-(4-((5-methyl-1H-pyrazol-3-yl)amino)pyrrolo[2,1-f][1,2,4]triazin-2-yl)-3-pyrrolidinol] were 7.64 and 7.42.
Regarding `Cc1cc(Nc2nc(N3CCNCC3)nn3cccc23)n[nH]1` [Example 74, N-(5-methyl-1H-pyrazol-3-yl)-2-(1-piperazinyl)pyrrolo[2,1-f][1,2,4]triazin-4-amine], the negative-log IC50 (pIC50) in test [3] was 6.92; in test [4] it was 6.71.
Consider `Cc1cc(Nc2nc(N3CCCC3)nn3cccc23)n[nH]1` [Example 75, N-(5-methyl-1H-pyrazol-3-yl)-2-(1-pyrrolidinyl)pyrrolo[2,1-f][1,2,4]triazin-4-amine], for which the pIC50 in test [3] is 8.30; in test [4], 8.05.
Taken in the same sequence, the figures for `N[C@H]1CCN(c2nc(Nc3cc(C4CC4)n[nH]3)c3cccn3n2)C1` [Example 91] were 8.30 and 8.00.
With `Cc1cc(Nc2nc(N3CCOCC3)nn3cccc23)[nH]n1` [Example 95, N-(3-methyl-1H-pyrazol-5-yl)-2-(4-morpholinyl)pyrrolo [2,1-f][1,2,4]triazin-4-amine], the figures for the pIC50 in test [3] and in test [4] were 7.64 and 7.31, respectively.
For `NCC1CCN(c2nc(Nc3cc(-c4ccccc4)n[nH]3)c3cccn3n2)CC1` [Example 97, 2-(4-(aminomethyl)-1-piperidinyl)-N-(3-phenyl-1H-pyrazol-5-yl)pyrrolo[2,1-f][1,2,4]triazin-4-amine], in that order: 7.62 and 7.32.
`CCc1cc(Nc2nc(N3CCC(c4ccccc4F)C3)nn3cccc23)[nH]n1` (centres unmarked) [Example 171, N-(3-Ethyl-1H-pyrazol-5-yl)-2-(3-(2-fluorophenyl)pyrrolidin-1-yl)pyrrolo[1,2-f][1,2,4]triazin-4-amine]: the pIC50 in test [1] is 6.81; in test [2], 7.96.
For `c1ccc(-c2cc(Nc3nc(N4CCC(c5cccnc5)C4)nn4cccc34)[nH]n2)cc1` (centres unmarked) [Example 174, N-(3-phenyl-1H-pyrazol-5-yl)-2-(3-(pyridin-3-yl)pyrrolidin-1-yl)pyrrolo[1,2f][1,2,4]triazin-4-amine], in that order: 6.17 and 7.04.
